# Earlier results in patent US10376520B2, “Methods for the treatment of cardiovascular disorders” (Galapagos NV, priority 2015, dated 2019).
# Where two headings read alike, the source gives them in different places.
# Assays:
# RA patient = settings: 10 mg bid for 6 weeks in RA patient; cited from earlier work
# patients = settings: first 3 months of exposure in the controlled clinical trials, cited from earlier work
structure (smiles),measurement,setting,value
C[C@@H]1CCN(C(=O)CC#N)C[C@@H]1N(C)c1ncnc2[nH]ccc12 [Tofacitinib],atherogenic index before and after treatment (unchanged),RA patient,about 3.5
same,mean [HDL] increased by,patients; 5 mg twice daily arm,10%
same,mean [LDL] increased by,patients; 5 mg twice daily arm,15%
same,mean [HDL] increased by,patients; 10 mg twice daily arm,12%
same,mean [LDL] increased by,patients; 10 mg twice daily arm,19%
same,mean [LDL]/[HDL] ratios,patients,essentially unchanged
